PubChem BioAssay AID250 (DTP/NCI, 2004)
Where “and” joins values, the source holds several entries; their conditions need not be identical. Equal entries are not always repeated. Inconclusive results and toxic doses are left out.

System: BDF1 mice, L1210 leukemia sc, survival T/C
Assay: NCI In Vivo Anticancer Drug Screen. Data for tumor model L1210 Leukemia (subcutaneous) in B6D2F1 (BDF1) mice
Conditions: higher = longer survival
Procedure, shortened: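 Antitumor activity is assessed in mice with transplanted tumors by comparing the treated group (T) with the vehicle control group (C).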

[1] = endpoint: median survival time, dose: 5.0 mg/kg/injection, schedule: Q01DX Z (sc), vehicle: water
[2] = endpoint: median survival time, dose: 8.4 mg/kg/injection, schedule: Q01DX Z (sc), vehicle: saline
[3] = endpoint: median survival time, dose: 14.0 mg/kg/injection, schedule: Q01DX Z (sc), vehicle: saline
[4] = endpoint: median survival time, dose: 14.0 mg/kg/injection, schedule: Q01DX Z (sc), vehicle: water
[5] = endpoint: median survival time, dose: 23.0 mg/kg/injection, schedule: Q01DX Z (sc), vehicle: water
[6] = endpoint: median survival time, dose: 39.0 mg/kg/injection, schedule: Q01DX Z (sc), vehicle: water
[7] = endpoint: median survival time, dose: 65.0 mg/kg/injection, schedule: Q01DX Z (sc), vehicle: water
[8] = endpoint: median survival time, dose: 8.4 mg/kg/injection, schedule: Q01DX Z (sc), vehicle: water
[9] = endpoint: median survival time, dose: 3.0 mg/kg/injection, schedule: Q01DX Z (sc), vehicle: water

For COc1cccc2c1C(=O)c1c(O)c3c(c(O)c1C2=O)C[C@@](O)(C(C)=O)C[C@@H]3OC1CC(N)C(O)C(C)O1 (stereo partly drawn), the T/C (endpoint: median survival time, dose: 1.0 mg/kg/injection, schedule: Q04DX003 (ip), vehicle: saline) was 88 % of control, the T/C (endpoint: median survival time, dose: 2.0 mg/kg/injection, schedule: Q04DX003 (ip), vehicle: saline) was 90 % of control and the T/C (endpoint: median survival time, dose: 3.0 mg/kg/injection, schedule: Q01DX Z (sc), vehicle: saline) was 95 % of control and 100 % of control. For the same compound, the T/C (endpoint: median survival time, dose: 3.1 mg/kg/injection, schedule: Q01DX Z (sc), vehicle: saline) was 95 % of control, the T/C (endpoint: median survival time, dose: 4.0 mg/kg/injection, schedule: Q04DX003 (ip), vehicle: saline) was 89 % of control and the T/C (endpoint: median survival time, dose: 5.0 mg/kg/injection, schedule: Q01DX Z (sc), vehicle: saline) was 100 % of control and 115 % of control. For the same compound, the T/C [1] was 104 % of control, the T/C (endpoint: median survival time, dose: 5.2 mg/kg/injection, schedule: Q01DX Z (sc), vehicle: saline) was 100 % of control and the T/C (endpoint: median survival time, dose: 6.5 mg/kg/injection, schedule: Q04DX003 (sc), vehicle: water) was 105 % of control and 111 % of control. The T/C [2] was 150 % of control, the T/C (endpoint: median survival time, dose: 10.8 mg/kg/injection, schedule: Q04DX003 (sc), vehicle: water) was 109 % of control and 111 % of control and the T/C [3] was 120 % of control. For the same compound, the T/C [4] was 123 % of control, the T/C (endpoint: median survival time, dose: 23.0 mg/kg/injection, schedule: Q01DX Z (sc), vehicle: saline) was 110 % of control and 120 % of control and the T/C [5] was 109 % of control. The T/C (endpoint: median survival time, dose: 24.0 mg/kg/injection, schedule: Q01DX Z (sc), vehicle: saline) was 120 % of control, the T/C (endpoint: median survival time, dose: 30.0 mg/kg/injection, schedule: Q04DX003 (sc), vehicle: water) was 99 % of control and 100 % of control and the T/C (endpoint: median survival time, dose: 39.0 mg/kg/injection, schedule: Q01DX Z (sc), vehicle: saline) was 110 % of control. The T/C [6] was 104 % of control, the T/C (endpoint: median survival time, dose: 40.0 mg/kg/injection, schedule: Q01DX Z (sc), vehicle: saline) was 110 % of control and the T/C [7] was 95 % of control.
In the case of Cc1cccc(C)c1NC(=O)N(CCCl)N=O, the T/C (endpoint: median survival time, dose: 8.4 mg/kg/injection, schedule: Q01DX Z (sc), vehicle: carboxymethylcellulose (CMC)) is reported as 106 % of control, the T/C (endpoint: median survival time, dose: 23.0 mg/kg/injection, schedule: Q01DX Z (sc), vehicle: carboxymethylcellulose (CMC)) is reported as 181 % of control and the T/C (endpoint: median survival time, dose: 39.0 mg/kg/injection, schedule: Q01DX Z (sc), vehicle: carboxymethylcellulose (CMC)) is reported as 287 % of control. The T/C (endpoint: median survival time, dose: 65.0 mg/kg/injection, schedule: Q01DX Z (sc), vehicle: carboxymethylcellulose (CMC)) was 337 % of control and the T/C (endpoint: median survival time, dose: 108.0 mg/kg/injection, schedule: Q01DX Z (sc), vehicle: carboxymethylcellulose (CMC)) was 162 % of control.
With CN(C)CCN(Cc1ccccc1)c1ccccn1 the T/C (endpoint: median survival time, dose: 16.0 mg/kg/injection, schedule: Q01DX001 (sc), vehicle: saline) was 95 % of control and 100 % of control, the T/C (endpoint: median survival time, dose: 20.0 mg/kg/injection, schedule: Q01DX001 (sc), vehicle: saline) was 97 % of control and 100 % of control and the T/C (endpoint: median survival time, dose: 24.0 mg/kg/injection, schedule: Q01DX001 (sc), vehicle: saline) was 96 % of control and 100 % of control. For the same compound, the T/C (endpoint: median survival time, dose: 30.0 mg/kg/injection, schedule: Q01DX001 (sc), vehicle: saline) was 98 % of control and 100 % of control.
COc1cc([C@@H]2c3cc4c(cc3[C@H](OC(=O)CCCC(=O)O)[C@H]3COC(=O)[C@H]23)OCO4)cc(OC)c1OC was tested, and the T/C [1] was 100 % of control, the T/C [8] was 109 % of control and the T/C [4] was 113 % of control. The T/C [5] was 113 % of control, the T/C [6] was 118 % of control and the T/C [7] was 118 % of control. The T/C (endpoint: median survival time, dose: 108.0 mg/kg/injection, schedule: Q01DX Z (sc), vehicle: water) was 118 % of control.
For CCCCC(=O)N(c1ccc(Nc2c3ccccc3nc3cc([N+](=O)[O-])ccc23)cc1)S(C)(=O)=O, the T/C (endpoint: mean survival time, dose: 3.18 mg/kg/injection, schedule: Q01DX009 (sc), vehicle: saline) was 107 % of control, the T/C (endpoint: mean survival time, dose: 6.25 mg/kg/injection, schedule: Q01DX009 (sc), vehicle: saline) was 112 % of control and the T/C (endpoint: mean survival time, dose: 25.0 mg/kg/injection, schedule: Q01DX009 (sc), vehicle: saline) was 168 % of control.
CN(Cc1cnc2nc(N)nc(N)c2n1)c1cccc(C(=O)NC(CCC(=O)O)C(=O)O)c1 (stereo not drawn) was tested, and the T/C (endpoint: mean survival time, dose: 1.0 mg/kg/injection, schedule: Q01DX009 (ip), vehicle: sodium bicarbonate) was 111 % of control, the T/C (endpoint: mean survival time, dose: 2.0 mg/kg/injection, schedule: Q01DX009 (ip), vehicle: sodium bicarbonate) was 107 % of control and the T/C (endpoint: mean survival time, dose: 4.0 mg/kg/injection, schedule: Q01DX009 (ip), vehicle: sodium bicarbonate) was 111 % of control. The T/C (endpoint: mean survival time, dose: 4.0 mg/kg/injection, schedule: Q04DX003 (ip), vehicle: sodium bicarbonate) was 113 % of control, the T/C (endpoint: mean survival time, dose: 8.0 mg/kg/injection, schedule: Q01DX009 (ip), vehicle: sodium bicarbonate) was 111 % of control and the T/C (endpoint: mean survival time, dose: 8.0 mg/kg/injection, schedule: Q04DX003 (ip), vehicle: sodium bicarbonate) was 111 % of control. The T/C (endpoint: mean survival time, dose: 16.0 mg/kg/injection, schedule: Q01DX009 (ip), vehicle: sodium bicarbonate) was 114 % of control, the T/C (endpoint: mean survival time, dose: 16.0 mg/kg/injection, schedule: Q04DX003 (ip), vehicle: sodium bicarbonate) was 108 % of control and the T/C (endpoint: mean survival time, dose: 32.0 mg/kg/injection, schedule: Q04DX003 (ip), vehicle: sodium bicarbonate) was 108 % of control. For the same compound, the T/C (endpoint: mean survival time, dose: 64.0 mg/kg/injection, schedule: Q04DX003 (ip), vehicle: sodium bicarbonate) was 119 % of control.
In the case of CN(C)c1ccc(/C=C/c2ccnc3ccccc23)cc1, the T/C (endpoint: median survival time, dose: 0.65 mg/kg/injection, schedule: Q01DX Z (sc), vehicle: water) is reported as 100 % of control, the T/C (endpoint: median survival time, dose: 1.08 mg/kg/injection, schedule: Q01DX Z (sc), vehicle: water) is reported as 100 % of control and the T/C (endpoint: median survival time, dose: 1.8 mg/kg/injection, schedule: Q01DX Z (sc), vehicle: water) is reported as 104 % of control. The T/C [9] was 100 % of control, the T/C [1] was 100 % of control and the T/C (endpoint: median survival time, dose: 6.0 mg/kg/injection, schedule: Q01DX Z (sc), vehicle: water) was 100 % of control. The T/C [8] was 100 % of control, the T/C (endpoint: median survival time, dose: 10.0 mg/kg/injection, schedule: Q01DX Z (sc), vehicle: water) was 100 % of control and the T/C [4] was 100 % of control. The T/C (endpoint: median survival time, dose: 17.0 mg/kg/injection, schedule: Q01DX Z (sc), vehicle: water) was 100 % of control, the T/C (endpoint: median survival time, dose: 28.0 mg/kg/injection, schedule: Q01DX Z (sc), vehicle: water) was 100 % of control and the T/C (endpoint: median survival time, dose: 47.0 mg/kg/injection, schedule: Q01DX Z (sc), vehicle: water) was 100 % of control. The T/C (endpoint: median survival time, dose: 78.0 mg/kg/injection, schedule: Q01DX Z (sc), vehicle: water) was 110 % of control and the T/C (endpoint: median survival time, dose: 130.0 mg/kg/injection, schedule: Q01DX Z (sc), vehicle: water) was 100 % of control.
CC(C)NNC(=O)c1ccncc1 was tested, and the T/C (endpoint: median survival time, dose: 200.0 mg/kg/injection, schedule: Q01DX001 (sc), vehicle: saline) was 105 % of control and 106 % of control and the T/C (endpoint: median survival time, dose: 400.0 mg/kg/injection, schedule: Q01DX001 (sc), vehicle: saline) was 100 % of control and 103 % of control.
CCCOC1=C(N2CC2)C(=O)C(OCCC)=C(N2CC2)C1=O was tested, and the T/C [2] was 110 % of control, the T/C [3] was 110 % of control and the T/C (endpoint: median survival time, dose: 108.0 mg/kg/injection, schedule: Q01DX Z (sc), vehicle: saline) was 115 % of control.
For O=C(Nc1ccc(C2=NCCCN2)cc1)c1ccc(C(=O)Nc2ccc(C3=NCCCN3)cc2)nc1, the T/C [9] was 100 % of control, the T/C [1] was 100 % of control and the T/C [8] was 100 % of control. The T/C [4] was 88 % of control and the T/C [5] was 100 % of control.
In the case of [I][Hg][CH2]C1COC([CH2][Hg][I])CO1 (stereo not drawn), the T/C (endpoint: median survival time, dose: 14.0 mg/kg/injection, schedule: Q01DX Z (sc), vehicle: other) is reported as 100 % of control, the T/C (endpoint: median survival time, dose: 23.0 mg/kg/injection, schedule: Q01DX Z (sc), vehicle: other) is reported as 100 % of control and the T/C (endpoint: median survival time, dose: 39.0 mg/kg/injection, schedule: Q01DX Z (sc), vehicle: other) is reported as 105 % of control. The T/C (endpoint: median survival time, dose: 65.0 mg/kg/injection, schedule: Q01DX Z (sc), vehicle: other) was 100 % of control and the T/C (endpoint: median survival time, dose: 108.0 mg/kg/injection, schedule: Q01DX Z (sc), vehicle: other) was 111 % of control.
In the case of O=C(CCN1CC1)OCCOC(=O)CCN1CC1, the T/C (endpoint: median survival time, dose: 4.7 mg/kg/injection, schedule: Q01DX Z (sc), vehicle: saline) is reported as 100 % of control, the T/C (endpoint: median survival time, dose: 7.8 mg/kg/injection, schedule: Q01DX Z (sc), vehicle: saline) is reported as 100 % of control and the T/C (endpoint: median survival time, dose: 13.0 mg/kg/injection, schedule: Q01DX Z (sc), vehicle: saline) is reported as 100 % of control. For the same compound, the T/C (endpoint: median survival time, dose: 21.0 mg/kg/injection, schedule: Q01DX Z (sc), vehicle: saline) was 111 % of control.
